Test results published in PubChem BioAssay AID328 (DTP/NCI, 2004).
Several values for one entry are separate records, joined by “and”; a condition that tells them apart may be missing. Equal entries are not always repeated. Toxic doses and inconclusive results are not listed.

System: BDF1 mice, P388 leukemia ip, median survival T/C
Assay: NCI In Vivo Anticancer Drug Screen. Data for tumor model P388 Leukemia (intraperitoneal) in B6D2F1 (BDF1) mice
Details: endpoint: median survival time, higher = longer survival
Summary of the method: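 T/C = treated-group survival ÷ vehicle-control survival; tumour transplanted into mice before dosing.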

[1] = dose: 100.0 mg/kg/injection, schedule: Q01DX001 (ip), vehicle: saline
[2] = dose: 100.0 mg/kg/injection, schedule: Q04DX003 (ip), vehicle: saline with Tween-80
[3] = dose: 200.0 mg/kg/injection, schedule: Q04DX003 (ip), vehicle: saline with Tween-80

c1cc(CC2CO2)c2c(c1CC1CO1)OCCOCCOCCOCCO2 (centres undefined)
T/C (dose: 15.0 mg/kg/injection, schedule: Q01DX009 (ip), vehicle: saline + alcohol): 100 % of control
T/C (dose: 30.0 mg/kg/injection, schedule: Q01DX009 (ip), vehicle: saline + alcohol): 106 % of control
T/C (dose: 60.0 mg/kg/injection, schedule: Q01DX009 (ip), vehicle: saline + alcohol): 109 % of control
T/C (dose: 120.0 mg/kg/injection, schedule: Q01DX009 (ip), vehicle: saline + alcohol): 111 % of control

O=c1cc(Cl)c(=O)[nH][nH]1
T/C (dose: 50.0 mg/kg/injection, schedule: Q01DX001 (ip), vehicle: saline): 101 % of control
T/C [1]: 118 % of control
T/C [2]: 100 % of control
T/C (dose: 200.0 mg/kg/injection, schedule: Q01DX001 (ip), vehicle: saline): 98 % of control
T/C [3]: 91 % of control
T/C (dose: 400.0 mg/kg/injection, schedule: Q04DX003 (ip), vehicle: saline with Tween-80): 91 % of control

CCCCCCCCCCCCCCCC(=O)OCC1OC(n2ccc(N)nc2=O)C(O)C1O (centres undefined)
T/C (dose: 0.38 mg/kg/injection, schedule: Q04DX003 (ip), vehicle: saline with Tween-80): 111 % of control
T/C (dose: 0.88 mg/kg/injection, schedule: Q04DX003 (ip), vehicle: saline with Tween-80): 109 % of control
T/C (dose: 1.5 mg/kg/injection, schedule: Q04DX003 (ip), vehicle: saline with Tween-80): 152 % of control
T/C (dose: 2.0 mg/kg/injection, schedule: Q04DX003 (ip), vehicle: saline with Tween-80): 154 % of control
T/C (dose: 3.0 mg/kg/injection, schedule: Q04DX003 (ip), vehicle: saline with Tween-80): 181 % of control and 189 % of control
T/C (dose: 3.13 mg/kg/injection, schedule: Q01DX009 (ip), vehicle: saline with Tween-80): 272 % of control and 215 % of control
T/C (dose: 6.25 mg/kg/injection, schedule: Q01DX009 (ip), vehicle: saline with Tween-80): 250 % of control and 322 % of control
T/C (dose: 7.5 mg/kg/injection, schedule: Q01DX009 (ip), vehicle: saline with Tween-80): 186 % of control
T/C (dose: 12.5 mg/kg/injection, schedule: Q01DX009 (ip), vehicle: saline with Tween-80): 300 % of control and 333 % of control
T/C (dose: 15.0 mg/kg/injection, schedule: Q01DX009 (ip), vehicle: saline with Tween-80): 190 % of control
T/C (dose: 22.0 mg/kg/injection, schedule: Q01DX009 (ip), vehicle: saline with Tween-80): 272 % of control
T/C (dose: 25.0 mg/kg/injection, schedule: Q01DX009 (ip), vehicle: saline with Tween-80): 266 % of control and 300 % of control
T/C (dose: 25.0 mg/kg/injection, schedule: Q04DX003 (ip), vehicle: saline with Tween-80): 109 % of control
T/C (dose: 30.0 mg/kg/injection, schedule: Q01DX009 (ip), vehicle: saline with Tween-80): 104 % of control
T/C (dose: 30.25 mg/kg/injection, schedule: Q01DX001 (ip), vehicle: Klucel (hydroxypropylcellulose) (HPC)): 214 % of control
T/C (dose: 31.75 mg/kg/injection, schedule: Q04DX002 (ip), vehicle: Klucel (hydroxypropylcellulose) (HPC)): 265 % of control and 204 % of control
T/C (dose: 40.0 mg/kg/injection, schedule: Q01DX001 (ip), vehicle: saline with Tween-80): 171 % of control
T/C (dose: 44.0 mg/kg/injection, schedule: Q04DX003 (ip), vehicle: saline sonified): 275 % of control
T/C (dose: 50.0 mg/kg/injection, schedule: Q01DX009 (ip), vehicle: saline with Tween-80): 90 % of control
T/C (dose: 50.0 mg/kg/injection, schedule: Q04DX003 (ip), vehicle: saline with Tween-80): 195 % of control
T/C (dose: 60.0 mg/kg/injection, schedule: Q01DX001 (ip), vehicle: saline with Tween-80): 188 % of control
T/C (dose: 62.5 mg/kg/injection, schedule: Q04DX002 (ip), vehicle: Klucel (hydroxypropylcellulose) (HPC)): 241 % of control and 265 % of control
T/C (dose: 66.0 mg/kg/injection, schedule: Q04DX003 (ip), vehicle: saline sonified): 300 % of control
T/C (dose: 90.0 mg/kg/injection, schedule: Q01DX001 (ip), vehicle: saline with Tween-80): 197 % of control
T/C (dose: 90.0 mg/kg/injection, schedule: Q04DX003 (ip), vehicle: saline with Tween-80): 231 % of control (2×) and 217 % of control
T/C [1]: 206 % of control
T/C (dose: 100.0 mg/kg/injection, schedule: Q04DX003 (ip), vehicle: saline sonified): 300 % of control
T/C [2]: 300 % of control and 168 % of control
T/C (dose: 125.0 mg/kg/injection, schedule: Q01DX001 (ip), vehicle: saline with Tween-80): 392 % of control
T/C (dose: 125.0 mg/kg/injection, schedule: Q04DX002 (ip), vehicle: Klucel (hydroxypropylcellulose) (HPC)): 265 % of control
T/C (dose: 150.0 mg/kg/injection, schedule: Q01DX001 (ip), vehicle: saline): 318 % of control
T/C (dose: 150.0 mg/kg/injection, schedule: Q04DX003 (ip), vehicle: saline sonified): 120 % of control
T/C (dose: 200.0 mg/kg/injection, schedule: Q01DX001 (ip), vehicle: saline with Tween-80): 239 % of control and 196 % of control and 214 % of control
T/C [3]: 95 % of control and 120 % of control
